From patent US20200157092A1, “[1,2,4]-TRIAZOLO [1,5-A]-PYRIMIDINYL DERIVATIVES SUBSTITUTED WITH PIPERIDINE, […] […] OGA INHIBITORS” (priority 2017, published 2020)
Read-outs that look alike come from different tables or passages of the source.

Experiments:
[1] = molecular target: T1, recombinant human Meningioma Expressed Antigen 5 (MGEA5), also referred to as O-GlcNAcase (OGA) (Homo sapiens, UniProt O60502); experiment: OGA biochemical assay: inhibition of FM-GlcNAc hydrolysis, fluorescence; protocol A (10 nM OGA, 1 h) or protocol B (2 nM OGA, 6 h); conditions: for IC50: read-out: Enzymatic hOGA, pIC50 (converted)
T1 construct: Full length OGA enzyme was purchased at OriGene (cat # TP322411); purchased OriGene TP322411
T1 sequence (O60502 1-916): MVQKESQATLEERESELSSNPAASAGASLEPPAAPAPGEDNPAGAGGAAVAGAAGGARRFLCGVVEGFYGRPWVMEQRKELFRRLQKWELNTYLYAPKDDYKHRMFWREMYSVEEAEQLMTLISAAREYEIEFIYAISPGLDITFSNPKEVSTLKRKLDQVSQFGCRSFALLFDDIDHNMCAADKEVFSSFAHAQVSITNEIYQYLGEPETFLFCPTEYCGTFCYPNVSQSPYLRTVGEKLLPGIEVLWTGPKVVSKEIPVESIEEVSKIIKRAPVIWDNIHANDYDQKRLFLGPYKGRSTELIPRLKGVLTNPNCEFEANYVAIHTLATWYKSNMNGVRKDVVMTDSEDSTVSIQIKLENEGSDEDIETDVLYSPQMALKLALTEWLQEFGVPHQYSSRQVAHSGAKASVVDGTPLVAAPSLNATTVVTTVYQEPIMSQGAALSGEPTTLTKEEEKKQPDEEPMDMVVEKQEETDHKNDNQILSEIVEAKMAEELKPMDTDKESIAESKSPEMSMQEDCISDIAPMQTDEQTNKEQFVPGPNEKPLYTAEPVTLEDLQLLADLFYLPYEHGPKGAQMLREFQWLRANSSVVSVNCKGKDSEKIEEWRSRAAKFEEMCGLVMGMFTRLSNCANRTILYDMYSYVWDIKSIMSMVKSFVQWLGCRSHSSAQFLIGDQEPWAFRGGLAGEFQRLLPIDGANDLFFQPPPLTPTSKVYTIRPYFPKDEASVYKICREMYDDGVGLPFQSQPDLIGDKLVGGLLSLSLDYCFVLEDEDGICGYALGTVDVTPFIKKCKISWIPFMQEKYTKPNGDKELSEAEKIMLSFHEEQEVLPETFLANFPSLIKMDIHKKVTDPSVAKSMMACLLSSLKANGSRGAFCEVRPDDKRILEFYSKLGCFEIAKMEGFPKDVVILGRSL
Description: The hydrolysis FM-GlcNAc (Marker Gene technologies, cat # M1485) results in the formation of ß-D-N-glucosamineacetate and fluorescein. The fluorescence of the latter can be measured at excitation wavelength 485 nm and emission wavelength 538 nm. An increase in enzyme activity results in an increase in fluorescence signal. Full length OGA enzyme was purchased at OriGene (cat # TP322411). The enzyme was stored in 25 mM Tris.HCl, pH 7.3, 100 mM glycine, 10% glycerol at −20° C. […] The assay was performed in 200 mM Citrate/phosphate buffer supplemented with 0.005% Tween-20. 35.6 g Na2HPO4 2 H2O (Sigma, # C0759) were dissolved in 1 L water to obtain a 200 mM solution. […] The buffer to stop the reaction consists of a 500 mM Carbonate buffer, pH 11.0. […] OGA was used at a 10 nM (protocol A) or 2 nM (protocol B) concentration and FM-GlcNAc at a 100 uM final concentration. Dilutions were prepared in assay buffer.
Plates were pre-incubated for 60 min at room temperature and then 2 μl FM-GlcNAc substrate mix added. […] Plates were briefly centrifuged for 1 min at 1000 rpm and incubate at room temperature for 1 h (10 nM OGA, protocol A) or 6 h (2 nM OGA, protocol B). To stop the reaction 5 μl STOP buffer were added and plates centrifuge again 1 min at 1000 rpm. Fluorescence was quantified in the Thermo Scientific Fluoroskan Ascent or the PerkinElmer EnVision with excitation wavelength 485 nm and emission wavelength 538 nm.
For analysis a best-fit curve is fitted by a minimum sum of squares method. From this an IC50 value and Hill coefficient was obtained. High control (no inhibitor) and low control (saturating concentrations of standard inhibitor) were used to define the minimum and maximum values.

OGA = molecular target: T2, OGA (Homo sapiens, UniProt O60502); experiment: OGA cellular assay: immunocytochemical detection of O-GlcNAcylated proteins in HEK293 cells inducible for P301L mutant human Tau; type: cell-based; conditions: for Emax: HEK293, read-out: Cellular Emax (%)
T2 construct: HEK293 cells inducible for P301L mutant human Tau (isoform 2N4R) were established at Janssen; endogenous in cells; host or cells: HEK293 cells inducible for P301L mutant human Tau (2N4R)
T2 sequence (O60502 1-916): T1 sequence (O60502 1-916)
From the text: HEK293 cells inducible for P301L mutant human Tau (isoform 2N4R) were established at Janssen. Thiamet-G was used for both plate validation (high control) and as reference compound (reference EC50 assay validation). […] Inhibition of OGA will result in an increase of O-GlcNAcylated protein levels resulting in an increased signal in the experiment. […] ICC pictures are imaged with a Perkin Elmer Opera Phenix plate microscope and quantified with the provided software Perkin Elmer Harmony 4.1.
Cells were propagated in DMEM high Glucose (Sigma, # D5796) following standard procedures. […] At the day of compound test medium from assay plates was removed and replenished with 90 μl of fresh Assay Medium. 10 μl of compounds at a 10 fold final concentration were added to the wells. Plates were centrifuged shortly before incubation in the cell incubator for 6 hours. DMSO concentration was set to 0.2%. Medium is discarded by applying vacuum. For staining of cells medium was removed and cells washed once with 100 μl D-PBS (Sigma, # D8537). From next step onwards unless other stated assay volume was always 50 μl and incubation was performed without agitation and at room temperature. […] Before analysis samples were washed 2 times manually for 5 minutes in ICC base buffer.
Imaging is performed using Perkin Elmer Phenix Opera using a water 20× objective and recording 9 fields per well. Intensity readout at 488 nm is used as a measure of O-GlcNAcylation level of total proteins in wells. To assess potential toxicity of compounds nuclei were counted using the Hoechst staining. IC50-values are calculated using parametric non-linear regression model fitting. As a maximum inhibition Thiamet G at a 200 uM concentration is present on each plate. In addition, a concentration response of Thiamet G is calculated on each plate.

[2] = Enzymatic protocol B (2 nM OGA, 6 h)
[3] = Enzymatic protocol A (10 nM OGA, 1 h)

Structure (SMILES) | Emax [1, 2] [%] | IC50 [1, 2] [nM] | melting point [°C] | Emax [1, 3] [%] | IC50 [1, 3] [nM] | other results
CC(=O)Nc1ncc(CN2CC[C@H](Cc3nccn4c(C)cnc34)C2)s1 [Product 104] | 100 | 1.48 | 189.54 | – | – | EC50 (OGA): 61.7 nM; Emax (OGA): 91.5%
CC(=O)Nc1ncc(CN2CCCC(c3cc4cc[nH]c4nc3C)C2)s1 (racemic) [Product 74] | – | – | 276.23 | 101 | 6.31 | EC50 (OGA): 13.5 nM; Emax (OGA): 102%
CC(=O)Nc1ncc(S(=O)(=O)N2CCCC(C)(c3cc(C(F)F)nc4ncnn34)C2)s1 (centres unmarked) [Product 60] | – | – | 238.12 | 98.7 | 1860 | –
CC(=O)Nc1ncc(CN2CCOC(c3cc(C)nc4ncnn34)C2)s1 (centres unmarked) [Product 35] | 86.7 | 1480 | 264.26 | 98.3 | 1580 | –
CC(=O)Nc1ncc(S(=O)(=O)N2CCNC(c3cc(C(F)F)nc4ncnn34)C2)s1 (centres unmarked) [Product 41] | – | – | 227.97 | 102 | 6.17 | EC50 (OGA): > 10000 nM; Emax (OGA): 10.5%
CC(=O)Nc1ncc(CN2CCOC(c3ccnc4ncnn34)C2)s1 (centres unmarked) [Product 36] | 93.6 | 741 | 251.21 | – | – | –
CC(=O)Nc1ncc(S(=O)(=O)N2CCCC(c3cc(C(F)F)nc4ncnn34)C2)s1 (racemic) [Product 6] | – | – | 266.14 | 101 | 9.33 | EC50 (OGA): > 10000 nM; Emax (OGA): 39.4%
CC(=O)Nc1ncc(S(=O)(=O)N2CCCC(c3cc(C(F)F)n4ccnc4n3)C2)s1 (racemic) [Product 23] | – | – | 280.13 | 102 | 295 | –
CC(=O)Nc1ncc(S(=O)(=O)N2CC[C@H](C)[C@@H](c3cc(C(F)F)nc4ncnn34)C2)s1 [Product 7] | – | – | 264.57 | 82.2 | 2750 | –
CC(=O)Nc1ncc(S(=O)(=O)N2CCC[C@@H](c3cc(C(F)F)n4ncnc4n3)C2)s1 [Product 22] | – | – | 263.43 | 99.1 | 617 | –
CC(=O)Nc1ncc(S(=O)(=O)N2CCNC(c3cc(C)nc4ncnn34)C2)s1 (centres unmarked) [Product 40] | – | – | 226.91 | 100 | 16.6 | –
CC(=O)Nc1ncc(S(=O)(=O)N2CCOC(c3cc(C(F)F)n4ncnc4n3)C2)s1 (centres unmarked) [Product 38] | – | – | 229.94 | 101 | 468 | –
CC(=O)Nc1ncc(CN2CCNC(c3cc(C)nc4ncnn34)C2)s1 (centres unmarked) [Product 42] | 93.6 | 437 | 228.95 | – | – | –
Cc1cc(C2CN(CC(=O)N3CCCC3)CCO2)n2ncnc2n1 (centres unmarked) [Product 59] | -1.34 | > 10000 | 127.35 | – | – | –
CC(=O)Nc1ncc(CN2CCOC(c3cc(C(F)F)n4ncnc4n3)C2)s1 (centres unmarked) [Product 39] | – | – | 209.69 | 88.4 | 3470 | –
CC(=O)Nc1ncc(CN2CCOC(c3cc(C(F)(F)F)nc4ncnn34)C2)s1 (centres unmarked) [Product 37] | 79.6 | 2690 | 242.64 | – | – | –
CC(=O)Nc1ncc(CN2CCOC(c3cc(C(F)F)nc4ncnn34)C2)s1 (centres unmarked) [Product 34] | – | – | 260.21 | 97.4 | 1580 | –
CC(=O)Nc1ncc(CN2CCC[C@@H](c3ccnc4ncnn34)C2)s1 [Product 65] | 99.2 | 123 | 236.16 | – | – | –
CC(=O)Nc1ncc(S(=O)(=O)N2CCNC(c3cc(C(F)F)n4ncnc4n3)C2)s1 (centres unmarked) [Product 43] | – | – | 226.22 | 93.1 | 1860 | –
CC(=O)Nc1ncc(S(=O)(=O)N2CCC3(CC3)C(c3cc(C(F)F)nc4ncnn34)C2)s1 (centres unmarked) [Product 63] | – | – | 266.56 | 93.8 | 692 | –
Cc1cc([C@H]2CN([C@@H](C)c3ccc4c(c3)OCO4)CCN2)n2ncnc2n1 [Product 57] | 93 | 617 | 161.31 | – | – | –
Cc1cc([C@H]2CN([C@H](C)c3ccc4c(c3)OCO4)CCN2)n2ncnc2n1 [Product 56] | 25.8 | > 10000 | 199.25 | – | – | –
CC(=O)Nc1ncc(CN2CCCC(C)(c3cc(C(F)F)n4ncnc4n3)C2)s1 (centres unmarked) [Product 62] | 16.2 | > 10000 | 217.24 | – | – | –
CC(=O)Nc1ncc(CN2CCCC(c3cc(C)nc4cc[nH]c34)C2)s1 (centres unmarked) [Product 96] | – | – | – | – | – | Enzymatic Emax (%) [1, 2]: 99.16%; Enzymatic hOGA; pIC50 [1, 2]: 6.15; Cellular hOGA; pEC50 (OGA; HEK293 cells inducible for P301L mutant human Tau, 6 hours incubation): 6.40; Cellular Emax (%) (OGA; HEK293 cells inducible for P301L mutant human Tau, 6 hours incubation, maximum = Thiamet G 200 uM): 70.38%
CC(=O)Nc1ncc(CN2CCC(c3cc(C(F)(F)F)nc4ncnn34)C2)s1 (centres unmarked) [Product 20] | 93.7 | 603 | 214.29 | – | – | –
CC(=O)Nc1ncc(CN2CCCC(Nc3cc(C)nc4ncnn34)C2)s1 (centres unmarked) [Product 51] | 98.5 | 115 | 249.94 | – | – | –
CC(=O)Nc1ncc(CN2CCCC(Cc3cncc4nccn34)C2)s1 (centres unmarked) [Product 45] | 100 | 4.68 | – | – | – | EC50 (OGA): 13.5 nM; Emax (OGA): 96.9%
CC(=O)Nc1ncc(CN2CCC(Cc3c(F)c(C)nc4ncnn34)C2)s1 (centres unmarked) [Product 49] | 101 | 1.74 | – | – | – | EC50 (OGA): 25.7 nM; Emax (OGA): 105%
CC(=O)Nc1ncc(CN2CCCC(c3nc(C)cc4cc[nH]c34)C2)s1 (centres unmarked) [Product 91] | 103 | 95.5 | – | – | – | EC50 (OGA): 44.7 nM; Emax (OGA): 84.3%
